Reference: patent US10945438B2, “Methods and compositions for reducing fungal infestation and improving grass quality” (BASF CORPORATION, priority 2015, dated 2021)

System: yellow spot
Assay: Percent turf area exhibiting yellow spot symptoms (Example 2)
Type: in vivo, Agrostis palustris
Settings: alone versus in combination
Method: In another aspect, a composition herein treats or reduces yellow spot disease. Yellow spot appears in the form of yellow, chlorotic, circular discrete patches ranging from dime/quarter size up to 2-3 inches diameter on bentgrass putting greens, tees, and approaches.
The study was conducted on “A-1” creeping bentgrass maintained as a golf course putting green. Plots were mowed 6 times per week with clippings collected. The study was irrigated to prevent drought stress. Individual plots were 3 ft×6 ft and arranged in a randomized complete block design with 4 replications. Chipco 26GT (4 fl oz/1000 ft^2) was applied to the study for suppression of dollar spot and brown patch on 2 May, 9 June, 29 July, and 20 August. Treatments were applied in water equivalent to 2 gal 1000 ft-2 with a CO2-powered sprayer equipped with a TeeJet AI9508E nozzle at 50 psi. Treatments were initiated on 24 April and applied on 28-day intervals. The study was irrigated with 0.1-0.2 inches of water after all treatments were applied. […] Turfgrass quality was assessed on 24 April, 21 May, 18 June, 16 July, 13 August, and 2 September. NDVI was assessed on 21 May, 18 June, 17 July, 13 August, and 2 September. Root length (3 subsamples per plot) was assessed on 18 September.

Q: Which “Control of yellow spot disease (in words)” value does the source give for `CCCOC(=O)NCCCN(C)C` [propamocarb] here?
A: not controlled
